Measured values reported in ChEMBL document CHEMBL1131038, “Derivatives of the triazoloquinazoline adenosine antagonist (CGS 15943) having high potency at the human A2B and A3 receptor subtypes” (J Med Chem, 1998).

Key:
[1] = molecular target: T1, Adenosine receptor A2b (Homo sapiens, UniProt P29275); test: Inhibition of 50 uM 5`-(N-ethylcarboxamido)adenosine induced cAMP production in CHO cell line expressing human Adenosine A2B receptor; format: cell-based
T1 sequence (P29275 whole entry): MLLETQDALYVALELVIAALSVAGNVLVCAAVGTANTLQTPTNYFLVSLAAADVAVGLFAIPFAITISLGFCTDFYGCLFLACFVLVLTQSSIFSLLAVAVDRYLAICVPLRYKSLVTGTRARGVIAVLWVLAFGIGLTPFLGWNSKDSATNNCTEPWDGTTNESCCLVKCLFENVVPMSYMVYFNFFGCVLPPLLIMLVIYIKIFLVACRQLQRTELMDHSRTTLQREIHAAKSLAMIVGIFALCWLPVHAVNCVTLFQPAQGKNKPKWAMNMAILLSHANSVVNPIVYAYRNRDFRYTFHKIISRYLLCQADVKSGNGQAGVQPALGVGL

[2] = molecular target: Adenosine receptor A2a (Rattus norvegicus, UniProt P30543); test: Binding affinity was determined in radioligand binding assay at rat striatal Adenosine A2A receptor vs [3H]-CGS- 21680
Chain of Adenosine receptor A2a (P30543 whole entry): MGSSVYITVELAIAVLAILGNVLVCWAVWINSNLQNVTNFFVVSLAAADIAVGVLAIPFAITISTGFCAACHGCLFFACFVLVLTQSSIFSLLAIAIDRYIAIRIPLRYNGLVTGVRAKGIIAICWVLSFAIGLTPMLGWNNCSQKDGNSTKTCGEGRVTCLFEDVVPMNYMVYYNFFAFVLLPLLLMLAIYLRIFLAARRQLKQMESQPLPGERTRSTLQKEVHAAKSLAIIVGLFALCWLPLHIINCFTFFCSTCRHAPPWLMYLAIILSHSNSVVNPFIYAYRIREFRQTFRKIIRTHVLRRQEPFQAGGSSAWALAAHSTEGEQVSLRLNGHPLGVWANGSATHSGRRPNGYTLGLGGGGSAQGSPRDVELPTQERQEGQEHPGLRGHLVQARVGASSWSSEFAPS

[3] = molecular target: T1, Adenosine receptor A2b; test: pA2 value at human Adenosine A2B receptor from Schild plots with slopes approaching unity; details: read-out: pA2 (converted)
[4] = Ratio against rat A1 receptor and Human A3 receptor
[5] = Ratio against rat A2A receptor and Human A3 receptor
[6] = molecular target: T2, Adenosine receptor A1 (Rattus norvegicus, UniProt P25099)
T2 sequence (P25099 whole entry): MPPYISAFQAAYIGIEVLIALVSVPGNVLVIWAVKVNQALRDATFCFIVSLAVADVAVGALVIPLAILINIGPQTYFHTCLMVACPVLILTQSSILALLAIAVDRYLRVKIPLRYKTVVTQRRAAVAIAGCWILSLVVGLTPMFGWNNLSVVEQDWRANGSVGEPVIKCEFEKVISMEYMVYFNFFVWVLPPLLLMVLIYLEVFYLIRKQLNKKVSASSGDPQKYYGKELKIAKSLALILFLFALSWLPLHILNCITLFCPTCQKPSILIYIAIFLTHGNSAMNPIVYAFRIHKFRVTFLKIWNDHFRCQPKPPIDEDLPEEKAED
Description: Binding affinity was determined in radioligand binding assay at rat brain adenosine A1 receptor vs [3H]R-PIA

[7] = molecular target: T3, Adenosine receptor A2b (Homo sapiens) (UniProt P29275); test: Inhibition at 50 uM on cAMP production induced by 50 uM 5`-(N-ethylcarboxamido)adenosine in CHO cell line transfected with human Adenosine A2B receptor cDNA; format: cell-based
T3 sequence (whole entry): T1 sequence (P29275 whole entry)

[8] = molecular target: T4, Adenosine receptor A3 (Homo sapiens, UniProt P0DMS8); test: biochemical
T4 sequence (P0DMS8 whole entry): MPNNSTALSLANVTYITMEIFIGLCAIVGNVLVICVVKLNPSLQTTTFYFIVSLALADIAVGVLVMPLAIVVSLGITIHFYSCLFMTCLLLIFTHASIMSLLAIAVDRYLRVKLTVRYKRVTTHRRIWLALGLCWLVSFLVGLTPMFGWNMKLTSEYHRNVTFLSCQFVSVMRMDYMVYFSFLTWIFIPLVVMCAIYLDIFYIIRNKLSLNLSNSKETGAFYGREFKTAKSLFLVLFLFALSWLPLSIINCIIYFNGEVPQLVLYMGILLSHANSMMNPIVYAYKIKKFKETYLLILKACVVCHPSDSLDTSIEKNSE
Description: Binding affinity at cloned human adenosine A3 receptor expressed in HEK293 cells was determined using [125I]AB-MECA as radioligand

[9] = molecular target: T1, Adenosine receptor A2b; test: Inhibition of 50 uM 5`-(N-ethylcarboxamido)adenosine induced cAMP production in CHO cell line expressing human Adenosine A2B receptor at 50 uM; format: functional, cell-based

SMILES	IC50 [1]	Ki [2]	Kb [3]	Selectivity ratio [4]	Selectivity ratio [5]	Ki [6]	inhibition [7]	Ki [8]	IC50 [9]
NCCCC(=O)Nc1nc2ccc(Cl)cc2c2nc(-c3ccco3)nn12	270 nM	1.38 nM	10 nM	0.11	0.017	8.75 nM	100%		
Nc1ccc(CC(=O)Nc2nc3ccc(Cl)cc3c3nc(-c4ccco4)nn23)cc1	7400 nM						90%	3.56 nM	
CC(C)(C)C(=O)Nc1nc2ccc(Cl)cc2c2nc(-c3ccco3)nn12	2400 nM						89%		
NCCCCC(=O)Nc1nc2ccc(Cl)cc2c2nc(-c3ccco3)nn12	1770 nM	1.13 nM		0.12	0.02	6.99 nM	100%	57.9 nM	

Continued, values first:

IC50 [1]	Ki [2]	Kb [3]	Selectivity ratio [4]	Selectivity ratio [5]	Ki [6]	inhibition [7]	Ki [8]	IC50 [9]	SMILES
13300 nM	7.58 nM		0.1	0.0088	89.8 nM	83%	874 nM		NCCC(=O)Nc1nc2ccc(Cl)cc2c2nc(-c3ccco3)nn12
	1.15 nM		0.55	0.014	45 nM		81.3 nM	1900 nM	O=C(O)CCCC(=O)Nc1nc2ccc(Cl)cc2c2nc(-c3ccco3)nn12
